Read-outs that look alike come from different tables or passages of the source.

Consider eight compounds from publication PMC8284440, “Toward New Transmission-Blocking Combination Therapies: Pharmacokinetics of 10-Amino-Artemisinins and 11-Aza-Artemisinin and Comparison with Dihydroartemisinin and Artemether” (Antimicrobial Agents and Chemotherapy, 2021).

One series relates to P. falciparum 7G8. More on the design: method as in ref 5 (supplement; main text 63). To be noted: CQ resistant; ref 5 (supplement; main text 63); read-out: Antimalarial activities IC50 7G8; cited from earlier work.
Another series relates to P. falciparum TM93-C1088. More on the design: method as in ref 5 (supplement; main text 63). To be noted: atovaquone and CQ resistant; ref 5 (supplement; main text 63); read-out: Antimalarial activities IC50 TM93-C1088; cited from earlier work.
Another series deals with P. falciparum TM91-C235. More on the design: method as in ref 5 (supplement; main text 63). To be noted: CQ and mefloquine resistant; ref 5 (supplement; main text 63); read-out: Antimalarial activities IC50 TM91-C235; cited from earlier work.
The next series concerns P. falciparum TM-C2B. Also noted: method as in ref 5 (supplement; main text 63). To be noted: atovaquone and CQ resistant; ref 5 (supplement; main text 63); read-out: Antimalarial activities IC50 TM-C2B; cited from earlier work.
Series [1] is described as follows: Preliminary PK assessment in the murine model (toxicity). The class given is in vivo. From the text: Overall, artemiside, artemisone, and the arylurea are the frontrunners in terms of global efficacies and relatively low toxicities in vitro. However, expression of therapeutic efficacy depends not only on biological activity but also on pharmacokinetic (PK) properties. This becomes important for the envisaged drug combinations ([67]). We report here on the in vitro absorption, distribution, metabolism, and excretion (ADME) properties and PK measurement in a murine model of the compounds of Fig. 2. […] The data are directly compared to those of DHA and artemether. An evaluation of the compounds to be taken forward is then presented.

Series [2] deals with P. falciparum NF54. Also noted: method as in ref 1 and 2 (supplement; main text 47, 48). As to conditions: Table S1, ± SEM; ref 1 and 2 (supplement; main text 47, 48); cited from earlier work.
In series [3] the test system is P. falciparum K1. More on the design: method as in ref 1 and 2 (supplement; main text 47, 48). To be noted: Table S1, ± SEM; ref 1 and 2 (supplement; main text 47, 48); cited from earlier work.
Series [4] concerns P. falciparum W2. More on the design: method as in ref 1 and 2 (supplement; main text 47, 48). To be noted: Table S1, ± SEM; ref 1 and 2 (supplement; main text 47, 48); cited from earlier work.
Series [5] relates to early stage (>90% stage I-III) P. falciparum NF54 gametocytes. As to conditions: cited from earlier work.
Series [6] concerns late stage (>90% stage IV and V) P. falciparum NF54 gametocytes. To be noted: cited from earlier work.
Series [7] relates to Chinese hamster ovary (CHO) cells. As to conditions: cited from earlier work.
The subject of the next series is P. falciparum D6. More on the design: method as in ref 5 (supplement; main text 63). As to conditions: CQ sensitive; ref 5 (supplement; main text 63); read-out: Antimalarial activities IC50 D6; cited from earlier work.
Series [8] relates to P. falciparum W2. Also noted: method as in ref 5 (supplement; main text 63). To be noted: CQ resistant; ref 5 (supplement; main text 63); read-out: Antimalarial activities IC50 W2; cited from earlier work.
On the set-up of series [9]: method as in PMID 25759576. To be noted: i.v., mouse; cited from earlier work.
Details of series [10]: method as in PMID 25759576. As to conditions: p.o., mouse; cited from earlier work.
Series [11] relates to P. falciparum NF54. More on the design: method as in ref 4 (supplement; main text 62). As to conditions: Table S2, ± SEM; ref 4 (supplement; main text 62); read-out: Antimalarial activities IC50 NF54; cited from earlier work.
Series [12] has as its system P. falciparum K1. More on the design: method as in ref 4 (supplement; main text 62). To be noted: Table S2, ± SEM; ref 4 (supplement; main text 62); read-out: Antimalarial activities IC50 K1; cited from earlier work.
For series [13], the system named is P. falciparum W2. Also noted: method as in ref 4 (supplement; main text 62). To be noted: Table S2, ± SEM; ref 4 (supplement; main text 62); read-out: Antimalarial activities IC50 W2; cited from earlier work.
Another series concerns murine cerebral malaria. More on the design: method as in PMID 20691118. As to conditions: prescribed low dose levels; cited from earlier work.
In series [14] the test system is liver stage P. berghei ANKA GFP-Luc-SMcon sporozoites. Also noted: method as in ref 2 (supplement; main text 48). To be noted: ref 2 (supplement; main text 48), cited from earlier work; for IC50: 48 h, ± SD.
In another series the test system is HepG2. To be noted: cited from earlier work.
The mark [15] stands for this setting: Table S3, ± SEM, ref 1 and 2 (supplement; main text 47, 48), read-out: Early Stage (EG, Luc 48 h) IC50.
[16] abbreviates: Table S3, ± SEM, ref 1 and 2 (supplement; main text 47, 48), read-out: Late Stage (LG, Luc 72 h) IC50.

As to `OC(c1cc(C(F)(F)F)nc2c(C(F)(F)F)cccc12)C1CCCCN1` (stereo not drawn) [Mefloquine MFQ, Mefloquine], the IC50 (commonly the midpoint of a concentration-inhibition curve) in the series on P. falciparum 7G8 is 5.4 ± 1.7 nM; with P. falciparum TM93-C1088, 16 ± 5 nM; in the series with P. falciparum TM91-C235, 107 ± 41 nM; in the series with P. falciparum TM-C2B, 130 ± 51 nM.
On to `C[C@H]1[C@H](Nc2ccc(F)cc2)O[C@@H]2O[C@@]3(C)CC[C@H]4[C@H](C)CC[C@@H]1[C@@]24OO3` [Arylamine 8], for which the “Toxicity in preliminary PK assessment” value in series [1] was “untoward toxicity”. In addition, the IC50 was 1.3 ± 0.6 nM in the series with P. falciparum NF54 [2]; 0.64 ± 0.1 nM in the series with P. falciparum K1 [3]; 3 ± 1 nM in the series with P. falciparum W2 [4]; 38.2 ± 9 nM in series [5] (setting [15]); 16.4 ± 6.38 nM in series [6] (setting [16]). Also, the EC50 (commonly the concentration that produces a half-maximal response) in series [7] (read-out: Cytotoxicity EC50 CHO, MTT, ±SD, ref 1 and 2 (supplement; main text 47, 48)) was 2900 ± 1400 nM.
For the compound `CCN(CC)CCCC(C)Nc1ccnc2cc(Cl)ccc12` (stereo not drawn) [Chloroquine], the IC50 in the series with P. falciparum NF54 [2] was 10 ± 3 nM; in the series on P. falciparum K1 [3], 154 ± 14 nM; in the series with P. falciparum D6 it was 16 ± 2 nM; with P. falciparum W2 [8] it was 195 ± 70 nM; in the series on P. falciparum 7G8, 84 ± 18 nM; in the series on P. falciparum TM93-C1088 it was 360 ± 38 nM. Further, the IC50 with P. falciparum TM91-C235 is 70 ± 12 nM; in the series on P. falciparum TM-C2B it was 95 ± 23 nM.
For `CN(C)c1ccc2nc3ccc(=[N+](C)C)cc-3sc2c1` [Methylene Blue, reference compound], the half-inhibitory concentration (IC50) in the series with P. falciparum NF54 [2] is 5 ± 0.8 nM; in the series on P. falciparum K1 [3], 6.45 ± 0.3 nM; in the series on P. falciparum W2 [4], 5.13 ± 0.31 nM; in series [5] (setting [15]), 95 nM; in series [6] (setting [16]), 143 nM. Also, in [7], the EC50 is 52600 ± 4500 nM.
For the compound `COc1cc(C)c2c(Oc3cccc(C(F)(F)F)c3)c(OC)cc(NC(C)CCCN)c2n1` (stereo not drawn) [Tafenoquine], in series [9], the AUC is 2,363 ± 146 min/μmol/liter, the CLint was 1.84 mL/min/kg, the V was 2.34 ± 0.0 L/kg and the t1/2 was 43.7 ± 1.5 h. Also, in [10], the AUC is given as 11,368 ± 1,232 min/μmol/liter; the Cmax (in general, the highest concentration seen after dosing) was 3.06 ± 0.37 µM; the F is on record as 55 ± 2%; the Tmax (commonly the time from dosing to the highest level) is on record as 9.0 ± 1.0 h.
Consider `C[C@H]1[C@H](OC(=O)CCC(=O)O)O[C@@H]2O[C@@]3(C)CC[C@H]4[C@H](C)CC[C@@H]1[C@@]24OO3` [Artesunate 4, artesunate], for which the IC50 in the series on P. falciparum NF54 [11] was 3 ± 0.29 nM; in the series on P. falciparum K1 [12], 3.26 ± 0.2 nM; in the series on P. falciparum W2 [13], 2.4 ± 0.2 nM; in [5] (Table S4, ± SEM, n = 3, ref 4 (supplement; main text 62), read-out: Early stage IC50 (Luciferase 48 h)), 62.8 ± 3.14 nM; in [6] (Table S4, n = 1, ref 4 (supplement; main text 62), read-out: Late stage IC50 (Luciferase 72 h)), 171 nM; with P. falciparum W2 [8], 3 ± 1.6 nM. In addition, the IC50 with P. falciparum 7G8 was 1.5 ± 0.2 nM; in the series with P. falciparum TM93-C1088, 1.4 ± 0.1 nM; in the series with P. falciparum TM91-C235, 2.9 ± 1.4 nM; with P. falciparum TM-C2B, 2.5 ± 0.5 nM. The “Cure of murine cerebral malaria” value in the series with murine cerebral malaria is recorded as “no cure”.
As to `O=C1C(O)=C([C@H]2CC[C@H](c3ccc(Cl)cc3)CC2)C(=O)c2ccccc21` [Atovaquone], the IC50 in [14] is 2.52 ± 0.997 nM; in the series on P. falciparum 7G8, 3.1 ± 0.9 nM; in the series on P. falciparum TM93-C1088, 18800 nM; with P. falciparum TM91-C235, 2.2 ± 0.7 nM; with P. falciparum TM-C2B it was 31800 nM. Also, the Maximum inhibition % in series [14] (at 0.5 µM) is given as 94.85±2.76%. Also, the concentration giving a half-maximal response (EC50) with HepG2 was > 250 nM.
For `COc1ccc(C[C@H](N)C(=O)N[C@H]2[C@@H](O)[C@H](n3cnc4c(N(C)C)ncnc43)O[C@@H]2CO)cc1` [Puromycin], the half-inhibitory concentration (IC50) in [14] was 22.7 ± 4.53 nM. Moreover, in series [14] (at 5 µM), the Maximum inhibition % was 110±4.24%. The EC50 in the series on HepG2 is 117 nM.
